Source: patent US6897019B1, “Methods for treating and preventing insulin resistance and related disorders” (priority 1998, dated 2005)
Entries after “also recorded” stand apart in the source; their conditions may differ. One block for each compound: values may come before it.

Experiments:
ERK1/2 [1] = experiment: ERK 1/2 kinase assay (MBP substrate) on extracts of treated 3T3-L1 adipocytes; assay type: cell-based, Mouse
Protocol: In this example, 3T3-L1 cells were treated as described in Example 2, and cell extracts were used in an ERK 1/2 kinase assay, using MBP (myelin basic protein) as a substrate. The assay used is described in Boulton et al. (1991) Cell Reg. 2: 357.
(§1) 3T3-L1 adipocytes prepared as described in Example 1 were pretreated for 3 hours with or without 20 mM NaSal or 100 μM PD98059 and then treated for 15 minutes with or without 10 ng/ml mTNF-α and with or without 10 μM BRL. Cell extracts were then prepared and used in ERK 1/2 kinase and JNK-1 kinase assays, as described above.
(§2) 3T3-L1 cells were pretreated for 3 days with 17 μM of PGJ2 and then for 15 minutes with 10 ng/ml TNF-α. The amount of phosphorylated (thus activated) JNK-1, ERK1/2, and p38 was determined by Western blot using an antibody specifically recognizing phosphorylated forms of the proteins. As a control, the total amount of JNK-1, ERK1/2 and p38 protein was determined by Western blot using an antibody recognizing the phosphorylated and non phosphorylated forms of the protein. The activity of ERK1/2 and JNK kinases was also determined in a kinase assay using MBP and a portion of c-jun, respectively, as substrate.

JNK-1 [2] = experiment: JNK-1 kinase assay (c-jun substrate) on extracts of treated 3T3-L1 adipocytes; assay type: cell-based, Mouse
Protocol: 3T3-L1 adipocytes were pretreated for 3 hours with or without 20 mM NaSal, with or without 100 μM MAP kinase kinase (MEK) inhibitor PD98059 (Biomol; Cat. No. EI-360) and then for 15 minutes with 10 ng/ml mTNF-α. JNK-1 kinase assays were then performed with extracts of each of these cell cultures on an N-terminal portion of c-jun, as described in Derjarde et al. (1994) Cell 76: 1025.
as §1, §2

p38 = experiment: Western blot of phosphorylated p38 in 3T3-L1 cells; assay type: cell-based, Mouse; conditions: 3 days 17 μM PGJ2, then 15 minutes 10 ng/ml TNF-α
Protocol: as §2

3T3-L1 adipocytes [3] = experiment: Catecholamine (isoproterenol)-induced glycerol release from 3T3-L1 adipocytes; assay type: cell-based, Mouse; conditions: BRL or PGJ2
ERK1/2 [4] = experiment: Western blot of phosphorylated ERK1/2 in 3T3-L1 cells; assay type: cell-based, Mouse; conditions: 3 days 17 μM PGJ2, then 15 minutes 10 ng/ml TNF-α
Protocol: as §2

JNK-1 [5] = experiment: Western blot of phosphorylated JNK-1 in 3T3-L1 cells; assay type: cell-based, Mouse; conditions: 3 days 17 μM PGJ2, then 15 minutes 10 ng/ml TNF-α
Protocol: as §2

3T3-L1 adipocytes [6] = experiment: Lipolysis (glycerol in culture medium) of 3T3-L1 adipocytes with or without TNF-α; assay type: cell-based, Mouse; conditions: for blocked share of the increase in glycerol release due to TNF-α: BRL 10 μM or PGJ2 15 μM, last 24 hours; for reduction of the increase in glycerol release associated with TNF-α: then 24 hours TNF-α plus BRL 1 μM; for increase in glycerol accumulation versus untreated controls: last 24 hours of 5-day treatment
Protocol: 3T3-L1 adipocytes used in this example were obtained from 3T3-L1 fibroblasts as follows. 3T3-L1 fibroblasts (ATCC Deposit NO. CL-173, described in U.S. Pat. No. 4,003,789) were cultured in Dulbecco's Modified Eagle's Medium (DMEM) containing 10% bovine calf serum, and induced to differentiate into adipocytes using standard protocols, as described, e.g., in Kohanski et al. (1996) J. Biol. Chem. 261:12272. Adipocytes were used 10-15 days after the differentiation protocol was initiated.
(§3) Differentiated 3T3-L1 adipocytes cultured in 12 well plates were incubated overnight in DMEM+0.5% BSA in the absence of serum. The following morning, the cells were incubated in the presence or absence of 2 mM or 20 mM sodium salicylate (NaSal) and treated with recombinant murine TNF-α (m TNF-α; Genzyme; Cambridge, Mass.) with or without 17 μM 15-deoxy-^12,14-PGJ2 (“PGJ2”; Cayman Chemical; Ann Arbor, Mich.) or 10 μM BRL 49653 (“BRL”; Smith Kine Beecham (Hamish Ross) (King of Prussia, Pa.)) for 24 hours. The glycerol content in the culture medium was determined using a colorimetric assay (GPO-Trinder, Sigma, St Louis, […].). Protein content was determined using the BCA (bicinchonic acid) protein assay (Pierce, Rockford, Ill.). The results are indicated as nmol glycerol per mg protein.
Accordingly, 3T3-L1 adipocytes were treated with BRL at 10 μM, 1 μM or 1 nM and TNF-α as described above, and the amount of glycerol was determined after 24 hours.
3T3-L1 adipocytes were treated with TNF-α (2 or 10 ng/ml), TNF-α plus BRL at 10 μM, TNF-α plus PGJ2 at 15 μM, or BRL or PGJ2 alone for 5 days. The media was replaced everyday and collected on day 5 to measure accumulation of glycerol.
[…] The glycerol content in the culture medium was determined as described above.
3T3-L1 adipocytes prepared as described in Example 1 were preincubated with various amounts (0-50 μM) of the p38 kinase inhibitor SB203580 and then treated with 10 ng/ml TNF-α for 24 hours and the amount of glycerol in the culture medium determined as described above. […]

[7] = Ehrman et al. 1997; cited from earlier work
p42/1p44 MAP kinases = conditions: FS4 fibroblasts; Schwenger et al. 1996; cited from earlier work
JNK = conditions: FS4 fibroblasts; Schwenger et al. 1997; cited from earlier work
3T3-L1 adipocytes [8] = experiment: TNF-α induced FFA release from 3T3-L1 adipocytes (NEFA-C colorimetric kit); assay type: cell-based, Mouse; conditions: 24 hours
Protocol: as §3
In this example, cells were treated for 24 hours as described above, and FFA levels in the culture medium were determined using a colorimetric kit (NEFA-C, WAKO Pure Chemicals, Osaka, Japan).

human adipocytes = experiment: TNF-α induced lipolysis in primary cultures of human adipocytes; assay type: cell-based; conditions: PD98059 72 hours pretreatment, then 24 hours 100 ng/ml human TNF-α
Protocol: Similar results were also obtained using primary cultures of human adipocytes. Primary cultures of human adipocytes, obtained from Zen-Bio were pretreated for 72 hours with PD98059 and then for 24 hours with 100 ng/ml of human TNF-α.

HSL = experiment: Western blot of HSL protein in 3T3-L1 adipocytes; assay type: cell-based, Mouse; conditions: TNF-α 10 ng/ml, 24 hours
Protocol: (§4) 3T3-L1 adipocytes were treated with TNF-α at 10 ng/ml, TNF-α plus BRL (10 μM), or BRL alone for 24 hours, following which cell lysates were collected and analyzed by Western blotting using antibodies against HSL and perilipin A proteins. Perilipin antibodies were generated by immunization of rabbits with a peptide identical to amino acids 9-23 of the rat perilipin protein (Greenberg et al. (1993) PNAS 90:12035). Antibodies to HSL were prepared by injecting a peptide based upon the rat HSL sequence (GeneBank) (KDLSFKGNSPEPSDSPEMC; SEQ ID NO: 1) into rabbits. Antibodies were subsequently affinity purified and used for Western blotting at a dilution of 1:1500. Western blotting was performed as follows: adipocytes are briefly rinsed with 1 ml of phosphate saline buffer (PBS, pH 7.4). Proteins were extracted by adding 200 μl of lysis buffer containing 50 mM Hepes, pH 7.4, 100 mM Nacl, 2 mM EDTA, 5% SDS, 0.1 mM Na3V) 4 , 50 mM NaF, 1 mM benzamidine, 100 μM AEBSF, adn 10 μg/ml aprotinin. Equivalent amounts of protein were separated by 10% SDS-PAGE, electrophoretically transferred to nitrocellulose membranes, incubated with primary antibody and subsequentely with donkey anti-rabbit IgG conducaged with horseradish peroxidase. Proteins were detected with enhanced chemiluminescence (ECL) system (Amersham).

perilipin A = experiment: Western blot of perilipin A protein in 3T3-L1 adipocytes; assay type: cell-based, Mouse; conditions: TNF-α 10 ng/ml, 24 hours
Protocol: as §4, with “(Amersham). […]” for “(Amersham).”

[9] = 3 days 17 μM PGJ2, then 15 minutes 10 ng/ml TNF-α
[10] = 3 hours pretreatment with 20 mM NaSal or 100 μM PD98059, then 15 minutes 10 ng/ml TNF-α
[11] = PD98059, pretreatment for 3 hours

Compound: CCCCC/C=C/C=C1/C(=O)C=C[C@@H]1C/C=C\CCCC(=O)O [PGJ2, 15-deoxy-^12,14-PGJ2]
- TNF-α induced increase in ERK1/2 kinase activity (ERK1/2 [1]; [9]): significantly inhibits
- TNF-α induced increase in JNK-1 kinase activity (JNK-1 [2]; [9]): to a lesser extent
- phosphorylation of p38 (p38): significantly reduces
- block of isoproterenol-induced glycerol release (3T3-L1 adipocytes [3]): neither BRL nor PGJ2 was able to block
- phosphorylation of ERK1/2 (ERK1/2 [4]): significantly reduces
- phosphorylation of JNK-1 (JNK-1 [5]): significantly reduces
- inhibition of TNF-α induced lipolysis (3T3-L1 adipocytes [6]; 10 μM BRL or 17 μM PGJ2, TNF-α 2 or 10 ng/ml, 24 hours): significantly inhibited; also recorded: inhibit
- blocked share of the increase in glycerol release due to TNF-α (3T3-L1 adipocytes [6]; 5 days, TNF-α 2 or 10 ng/ml): about 100%
- glycerol accumulation versus control (untreated) cells (3T3-L1 adipocytes [6]; BRL or PGJ2 alone, 5 days): not different from levels measured in control
- further reduction of lipolysis when added to NaSal (3T3-L1 adipocytes [6]; added to cells incubated with 20 mM NaSal, TNF-α, 24 hours): did not further reduce lipolysis

Compound: Cc1c(C)c2c(c(C)c1O)CCC(C)(COc1ccc(CC3SC(=O)NC3=O)cc1)O2 (stereo not shown) [troglitazone, 5-[[4-[(3,4-dihydro-6-hydroxy-2,5,7,8-tetramethyl-2H-1-benzopyran-2-yl)methoxy]phenyl]methyl]-2,4-thiazolidinedione]
- efficacy in PCOS [7]: effective

Compound: O=C([O-])c1ccccc1O.[Na+] [NaSal, sodium salicylate]
- inhibition of TNF-induced activation of p42/1p44 MAP kinases (p42/1p44 MAP kinases): capable of inhibiting
- inhibition of ERK1/2 activation (ERK1/2 [1]; 20 mM NaSal 3 hours, then 15 minutes 10 ng/ml TNF-α): about two
- TNF-α induced JNK-1 activation (kinase activity) (JNK-1 [2]; [10]): significantly reduced; also recorded: decreases
- inhibition of TNF-induced activation of JNK (JNK): capable of inhibiting
- ability of TNF-α to increase lipolysis (3T3-L1 adipocytes [6]; 2 mM NaSal): partially reduced
- inhibition of glycerol production, factor (3T3-L1 adipocytes [6]; 2 mM NaSal, induced by 10 ng/ml TNF-α, 24 hours): ~2 factor
- ability of TNF-α to increase lipolysis (3T3-L1 adipocytes [6]; 20 mM NaSal): completely blocked
- inhibition of TNF-α induced lipolysis (3T3-L1 adipocytes [6]; 2 or 20 mM NaSal, TNF-α 2 ng/ml (Panel A) or 20 ng/ml (Panel B), 24 hours): significantly inhibited
- inhibition of glycerol production, factor (3T3-L1 adipocytes [6]; induced by 2 ng/ml TNF-α, NaSal 2 or 20 mM, 24 hours): 3-4 factor

Compound: CN(CCOc1ccc(CC2SC(=O)NC2=O)cc1)c1ccccn1 (stereo not shown) [BRL, rosiglitazone]
- reduction in activation of ERK, factor (ERK1/2 [1]; 72 hour pretreatment with 5 μM BRL, then TNF-α 10 ng/ml 15 minutes in the presence of BRL): about 2.5 factor
- effect on FFA release (3T3-L1 adipocytes [8]; BRL alone, no TNF-α): no effect
- reduction of TNF-α induced FFA release (3T3-L1 adipocytes [8]; BRL, 10 ng/ml TNF-α): about 90%
- reduction of the increase in glycerol release associated with TNF-α (3T3-L1 adipocytes [6]; 24 hour pretreatment with TNF-α 2 ng/ml): about 65%
- reduction of the increase in glycerol release associated with TNF-α (3T3-L1 adipocytes [6]; 24 hour pretreatment with TNF-α 10 ng/ml): about 50%
- inhibition of basal lipolysis (3T3-L1 adipocytes [6]; 72 hour pretreatment with BRL, no TNF-α): approximately 30%
- blocked share of the increase in glycerol release due to TNF-α (3T3-L1 adipocytes [6]; 5 days, TNF-α 2 or 10 ng/ml): about 100%
- inhibition of TNF-α induced lipolysis (3T3-L1 adipocytes [6]; BRL, Example 6 (72 hour pretreatment context)): > 90%
- earliest time point at which the effect of TNF-α on glycerol release began to reverse (3T3-L1 adipocytes [6]; after addition of BRL to TNF-α pretreated cells): 6 h

- increase of MBP phosphorylation in the presence of TNF-α and inhibitor, factor (ERK1/2 [1]; 100 μM PD98059 3 hours, then 15 minutes 10 ng/ml TNF-α): less than two
- inhibition of MAP kinase activation (ERK1/2 [1]; 100 μM PD98059 (Example 6, FIG. 6)): at least 90%
- TNF-α induced ERK1/2 activation (kinase activity) (ERK1/2 [1]; [10]): inhibited
Compound: COc1cccc(-c2cc(=O)c3ccccc3o2)c1N [PD98059]
- decrease of TNF-α induced lipolysis, factor (3T3-L1 adipocytes [6]; 100 μM PD98059, 24 hours pretreatment, then TNF-α 24 hours): less than 2 factor
- reduction of TNF-α induced lipolysis (3T3-L1 adipocytes [6]; [11]): about 76%
- reduction of TNF-α induced lipolysis, factor (3T3-L1 adipocytes [6]; [11]): about 3 factor
- TNF-α induced lipolysis in human cells (human adipocytes): reduced

- increase in phosphorylation of the MBP substrate (ERK1/2 activation) (ERK1/2 [1]; 10 ng/ml TNF-α, 15 minutes): seven
Compound: TNF-α
- HSL protein expression versus untreated controls (HSL): slightly decreased
- expression of perilipin A protein versus untreated controls (perilipin A): markedly decreased
- increase in glycerol accumulation versus untreated controls (3T3-L1 adipocytes [6]; 2 ng/ml TNF-α): ~10 fold
- increase in glycerol accumulation versus untreated controls (3T3-L1 adipocytes [6]; 10 ng/ml TNF-α): ~13 fold

Compound: C[S+]([O-])c1ccc(-c2nc(-c3ccncc3)c(-c3ccc(F)cc3)[nH]2)cc1 (stereo not shown) [SB203580]
- release of glycerol from the adipocytes (3T3-L1 adipocytes [6]; SB203580 0-50 μM preincubation, then 10 ng/ml TNF-α 24 hours): increases the release of glycerol
- concentration up to which glycerol release is proportional to the amount added (3T3-L1 adipocytes [6]; SB203580, 10 ng/ml TNF-α 24 hours): ≤ 20 µM
